One experiment concerns rat fat cells. Briefly: Inhibition of free fatty acid release from epinephrine-stimulated rat fat cells. Particulars: 10^-5 M epinephrine, 3 hours at 37° C., VOSO4 is 1.00 mM, other values are relative to it, read-out: IC50 (mM), concentration that inhibits 50% fatty acid release. Type of experiment: cell-based. The procedure:
According to the method described in Biol. Pharm.
In silicon-processed vials, the fat cells isolated in the above (2.5×10^6 cells/ml) were pre-incubated in 1 ml of KRB buffer that contains a varying concentration (10^−4, 5×10^−4, 10^−3 M) of VOSO4 different Zn(II) complexes of the invention and 20 mg/ml of BSA, at 37° C. for 0.5 hours. Next, 10^−5 M of epinephrine was added to the reaction mixture, and the resulting solution was incubated at 37° C. for 3 hours. The reaction was stopped by cooling the mixture with ice, and the mixture was centrifuged at 3000 rpm for 10 minutes. The free fatty acid (FFA) level in the extracellular solution was measured with an NEFA kit, and IC50 of the test compound was calculated.

The test system of a further experiment is KK-A^y mice. The experiment is described as follows: Glucose tolerance (glucose load) test in KK-A^y mice after 14-day administration. It counts as in vivo. Particulars: for effect in glucose load test compared with Zn(2-AM-py)2Cl2 or Zn(Car)2Cl2 / diabetic condition in glucose load test: FIG. 21 and FIG. 22, 14-day intraperitoneal administration; for diabetic condition in glucose load test: vs diabetic control mice. An excerpt:
This is a glucose load test effected according to the method described in Biochem. Biophys. Res. Comm., 281, 1190-1193 (2001), in which the zinc(II) complex of the invention was intraperitoneally administered to KK-A^y mice for 14 days or was not thereto. […]

`O=S(=O)([O-])[O-].[O]=[V+2]` [VOSO4, oxovanadium sulfate, reference compound]: in the experiment on rat fat cells, the IC50 was 1 mM.
For `C[C@H](O)C(=O)O.C[C@H](O)C(=O)O.[Zn]` [Zn(Lac)2, L-lactic Acid (Lac)/zinc(II) complex], in the experiment with rat fat cells, the IC50 worked out at 0.81 mM.
Still for that read-out and setting: then `O=C1O[C@H]([C@@H](O)CO)C(O)=C1[O-].O=C1O[C@H]([C@@H](O)CO)C(O)=C1[O-].[Zn+2]` [Zn(Vit-C)2, bis(L-ascorbic acid)/zinc(II) complex], with 0.8 mM; and “L-carnitine (γ-trimethyl-β-hydroxybutyrobetaine=Car)/zinc(II) complex [Zn(Car)2Cl2]”, with 0.8 mM.
Take “bis(2-aminomethylpyridine)/zinc(II) complex [Zn(2-AM-py)2Cl2]”: the IC50 with rat fat cells is 0.85 mM. For the same compound, the “blood glucose level after 120 minutes” value in the experiment with KK-A^y mice (FIG. 19, 13-hour fasting after 14-day intraperitoneal administration, 1 g/kg glucose orally) is recorded as “almost the normal level”; with KK-A^y mice (FIG. 20, 13-hour fasting after 14-day administration, 1 g/kg glucose orally), “almost the normal level”. For the same compound, the “peak top of blood glucose level after glucose administration” value is given as “low peak top” in the experiment on KK-A^y mice (FIG. 19, 13-hour fasting after 14-day intraperitoneal administration, 1 g/kg glucose orally, vs no complex administration); “low peak top” in the experiment on KK-A^y mice (FIG. 20, 13-hour fasting after 14-day administration, vs oral L-carnitine and acacia solution alone).
As for “bis(glycyl-N,N′-ethylene-L-alanyl-L-alanine ethyl ester)/zinc(II) complex [Zn(Gly-eAA-OEt)2Cl2]”, the IC50 in the experiment with rat fat cells stood at 0.85 mM.
As to “bis(quinic acid)/zinc(II) complex [Zn(Qui)2]”, the IC50 with rat fat cells stood at 0.98 mM. Besides, in the experiment on KK-A^y mice, the “effect in glucose load test compared with Zn(2-AM-py)2Cl2 or Zn(Car)2Cl2” value is “somewhat lower” and the “diabetic condition in glucose load test” value was “significantly ameliorated”.
“bis(vitamin U)/zinc(II) complex [Zn(Vit-U)Cl2]”: the IC50 in the experiment on rat fat cells stood at 0.84 mM. For the same compound, in the experiment on KK-A^y mice, the “effect in glucose load test compared with Zn(2-AM-py)2Cl2 or Zn(Car)2Cl2” value is on record as “somewhat lower” and the “diabetic condition in glucose load test” value is listed as “significantly ameliorated”.
On to “bis-(R)-2-(1-aminoethyl)pyridine (=α-pyridylethylamine)/zinc(II) complex [Zn((R)-2-AM-py)2Cl2]”, for which the IC50 in the experiment on rat fat cells was 0.4 mM.
Same read-out and setting: then “bis-(S)-2-(1-aminoethyl)pyridine/zinc(II) complex [Zn((S)-2-AM-py)2Cl2]”, with 0.39 mM.

(Values after patent US7226935B2, “Hypoglycemic agent” (Japan Science and Technology Corporation, priority 2001, dated 2007).)
